Assay results as given in patent US9255101B2 (BIOPROJECT, priority 2012, dated 2016).
Where a name gives a salt, the structure may show the parent alone.

Legend:
human H4 receptor [1] = target: T1, human H4 receptor (Homo sapiens, UniProt Q9H3N8); assay: biochemical
human H4 receptor [2] = target: T1, human H4 receptor; assay: biochemical; remark: listed apart in the source
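Wherever IC50 is given: membranes from SH-SY5Y cells with stable human H4 receptor expression, incubated with GDP 10 µM, radioactivity retained on filters counted by liquid scintillation.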
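Wherever Ki is given: radioligand displacement of a [3H]-labelled ligand from membranes of CHO cells stably expressing human H4 receptor, bound radioactivity counted on filters by liquid scintillation.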

SMILES | IC50 (human H4 receptor [1]) [nM] | Ki (human H4 receptor [2]) [nM]
Cc1c(-c2ccccc2)nc2n1CCc1ccccc1C2OC1CCN(C)CC1 (single isomer, unassigned) [Example 135B, 1-methyl-4-(1-methyl-piperidin-4-yloxy)-2-phenyl-9,10-dihydro-4H-3,10a-diaza-benzo[f]azulene] | < 30 | < 30
Cc1ccc(-c2cn3c(n2)C(OC2CCN(C)CC2)c2ccccc2CC3)cc1 (stereo not shown) [Example 5, 4-(1-methylpiperidin-4-yloxy)-2-p-tolyl-9,10-dihydro-4H-3,10a-diaza-benzo[f]azulene] | < 300 | < 30
Cc1cccc(-c2cn3c(n2)C(OC2CCN(C)CC2)c2ccccc2CC3)c1 (stereo not shown) [Example 6, 4-(1-methyl-piperidin-4-yloxy)-2-m-tolyl-9,10-dihydro-4H-3,10a-diaza-benzo[f]azulene] | < 300 | < 300
CCc1ccc(-c2cn3c(n2)C(OC2CCN(C)CC2)c2ccccc2CC3)cc1 (stereo not shown) [Example 21, 2-(4-ethylphenyl)-4-(1-methylpiperidin-4-yloxy)-9,10-dihydro-4H-3,10a-diaza-benzo[f]azulene] | < 30 | < 300
CN1CCC(OC2c3ccccc3CCn3cc(-c4ccc(C(F)(F)F)cc4)nc32)CC1 (stereo not shown) [Example 25, 4-(1-methylpiperidin-4-yloxy)-2-(4-trifluoromethylphenyl)-9,10-dihydro-4H-3,10a-diaza-benzo[f]azulene] | < 30 | < 30
CN1CCC(OC2c3ccccc3CCn3cc(-c4ccc(S(=O)(=O)N(C)C)cc4)nc32)CC1 (stereo not shown) [Example 29, N,N-dimethyl-4-[4-(1-methylpiperidin-4-yloxy)-9,10-dihydro-4H-3,10a-diaza-benzo[f]azulen-2-yl]-benzenesulfonamide] | < 300 | < 300
C=CCc1cn2c(n1)C(OC1CCN(C)CC1)c1ccccc1CC2 (stereo not shown) [Example 30, 2-allyl-4-(1-methylpiperidin-4-yloxy)-9,10-dihydro-4H-3,10a-diaza-benzo[f]azulene oxalate] | < 300 | < 300
Cc1c(CCC(C)(C)C)nc2n1CCc1ccccc1C2OC1CCN(C)CC1 (stereo not shown) [Example 229, 2-(3,3-dimethyl-butyl)-1-methyl-4-(1-methylpiperidin-4-yloxy)-9,10-dihydro-4H-3,10a-diaza-benzo[f]azulene] |  | < 30
CN1CCC(OC2c3ccccc3CCn3c2nc(-c2ccccc2)c3C#N)CC1 (stereo not shown) [Example 235, 4-(1-methylpiperidin-4-yloxy)-2-phenyl-9,10-dihydro-4H-3,10a-diaza-benzo[f]azulene-1-carbonitrile] |  | < 30
CCCc1nc2n(c1-c1ccccc1)CCc1ccccc1C2OC1CCN(C)CC1 (stereo not shown) [Example 246, 4-(1-methyl-piperidin-4-yloxy)-1-phenyl-2-propyl-9,10-dihydro-4H-3,10a-diaza-benzo[f]azulene] |  | < 300
Cc1c(-c2ccncc2)nc2n1CCc1ccccc1C2OC1CCN(C)CC1 (stereo not shown) [Example 250, 1-methyl-4-(1-methylpiperidin-4-yloxy)-2-pyridin-4-yl-9,10-dihydro-4H-3,10a-diaza-benzo[f]azulene] |  | < 1000
Cc1c(-c2ccccn2)nc2n1CCc1ccccc1C2OC1CCN(C)CC1 (stereo not shown) [Example 251, 1-methyl-4-(1-methylpiperidin-4-yloxy)-2-pyridin-2-yl-9,10-dihydro-4H-3,10a-diaza-benzo[f]azulene] |  | < 300
C=C(C)Cc1nc2n(c1C)CCc1ccccc1C2OC1CCN(C)CC1 (stereo not shown) [Example 260, 1-methyl-2-(2-methylallyl)-4-(1-methylpiperidin-4-yloxy)-9,10-dihydro-4H-3,10a-diaza-benzo[f]azulene] |  | < 300
CN1CCC(OC2c3ccccc3CCn3c2nc(Cc2ccccc2)c3C#N)CC1 (stereo not shown) [Example 263, 2-benzyl-4-(1-methylpiperidin-4-yloxy)-9,10-dihydro-4H-3,10a-diaza-benzo[f]azulene-1-carbonitrile] |  | < 300
CN(C)CCOC1c2ccccc2CCn2c1nc(I)c2I (stereo not shown) [Example 264, [2-(1,2-diiodo-9,10-dihydro-4H-3,10a-diaza-benzo[f]azulen-4-yloxy)-ethyl]-dimethyl-amine] |  | < 1000
Ic1nc2n(c1I)CCc1ccccc1C2OCCN1CCCCC1 (stereo not shown) [Example 265, 1,2-diiodo-4-(2-piperidin-1-yl-ethoxy)-9,10-dihydro-4H-3,10a-diaza-benzo[f]azulene] |  | < 1000
CN1C2CCC1CC(OC1c3ccccc3CCn3c1nc(I)c3I)C2 (stereo not shown) [Example 269, 1,2-diiodo-4-(8-methyl-8-aza-bicyclo[3.2.1]oct-3-yloxy)-9,10-dihydro-4H-3,10a-diaza-benzo[f]azulene] |  | < 1000
CN(C)CCCOC1c2ccccc2CCn2c1nc(I)c2I (stereo not shown) [Example 270, [3-(1,2-diiodo-9,10-dihydro-4H-3,10a-diaza-benzo[f]azulen-4-yloxy)-propyl]-dimethyl-amine] |  | < 1000
Ic1nc2n(c1I)CCc1ccccc1C2OC1CN2CCC1CC2 (stereo not shown) [Example 271, 4-(1-azabicyclo[2.2.2]oct-3-yloxy)-1,2-diiodo-9,10-dihydro-4H-3,10a-diaza-benzo[f]azulene oxalate] |  | < 1000
CN1CCC(OC2c3ccccc3CCn3c2nc(-c2ccccc2Cl)c3C#N)CC1 (stereo not shown) [Example 272, 2-(2-chlorophenyl)-4-(1-methyl-piperidin-4-yloxy)-9,10-dihydro-4H-3,10a-diaza-benzo[f]azulene-1-carbonitrile oxalate] |  | < 30

Continued, values first:

IC50 (human H4 receptor [1]) [nM] | Ki (human H4 receptor [2]) [nM] | SMILES
< 30 | < 300 | CN1CCC(OC2c3ccccc3CCn3cc(-c4ccccc4Cl)nc32)CC1 (single isomer, unassigned) [Example 54B, 2-(2-chlorophenyl)-4-(1-methylpiperidin-4-yloxy)-9,10-dihydro-4H-3,10a-diaza-benzo[f]azulene]
< 300 | < 30 | CC(=O)c1ccc(-c2cn3c(n2)C(OC2CCN(C)CC2)c2ccccc2CC3)cc1 (stereo not shown) [Example 11, 1-{4-[4-(1-methylpiperidin-4-yloxy)-9,10-dihydro-4H-3,10a-diaza-benzo[f]azulen-2-yl]-phenyl}ethanone]
< 300 | < 300 | CN1CCC(OC2c3ccccc3CCn3cc(-c4ccsc4)nc32)CC1 (stereo not shown) [Example 12, 4-(1-methylpiperidin-4-yloxy)-2-thiophen-3-yl-9,10-dihydro-4H-3,10a-diaza-benzo[f]azulene]
< 30 | < 30 | CN1CCC(OC2c3ccccc3CCn3cc(-c4ccc(OC(F)(F)F)cc4)nc32)CC1 (stereo not shown) [Example 15, 4-(1-methylpiperidin-4-yloxy)-2-(4-trifluoromethoxyphenyl)-9,10-dihydro-4H-3,10a-diaza-benzo[f]azulene oxalate]
< 30 | < 30 | CSc1ccc(-c2cn3c(n2)C(OC2CCN(C)CC2)c2ccccc2CC3)cc1 (stereo not shown) [Example 20, 4-(1-methylpiperidin-4-yloxy)-2-(4-methylsulfanylphenyl)-9,10-dihydro-4H-3,10a-diaza-benzo[f]azulene]
< 300 | < 30 | CCCc1ccc(-c2cn3c(n2)C(OC2CCN(C)CC2)c2ccccc2CC3)cc1 (stereo not shown) [Example 22, 4-(1-methylpiperidin-4-yloxy)-2-(4-propylphenyl)-9,10-dihydro-4H-3,10a-diaza-benzo[f]azulene]
< 300 | < 30 | CN1CCC(OC2c3ccccc3CCn3cc(-c4ccccc4Cl)nc32)CC1 (stereo not shown) [Example 26, 2-(2-chlorophenyl)-4-(1-methylpiperidin-4-yloxy)-9,10-dihydro-4H-3,10a-diaza-benzo[f]azulene oxalate]
< 300 | < 300 | CN1CCC(OC2c3ccccc3CCn3cc(-c4ccccc4F)nc32)CC1 (stereo not shown) [Example 27, 2-(2-fluorophenyl)-4-(1-methylpiperidin-4-yloxy)-9,10-dihydro-4H-3,10a-diaza-benzo[f]azulene]
< 30 | < 300 | CN1CCC(OC2c3ccccc3CCn3cc(-c4ccc(C(=O)C(F)(F)F)cc4)nc32)CC1 (stereo not shown) [Example 31, 2,2,2-trifluoro-1-{4-[4-(1-methylpiperidin-4-yloxy)-9,10-dihydro-4H-3,10a-diaza-benzo[f]azulen-2-yl]-phenyl}-ethanone oxalate]
< 300 | < 300 | CC(C)c1ccc(-c2cn3c(n2)C(OC2CCN(C)CC2)c2ccccc2CC3)cc1 (stereo not shown) [Example 32, 2-(4-isopropylphenyl)-4-(1-methyl-piperidin-4-yloxy)-9,10-dihydro-4H-3,10a-diaza-benzo[f]azulene oxalate]
< 300 | < 300 | CN1CCC(OC2c3ccccc3CCn3cc(-c4ccc(CC#N)cc4)nc32)CC1 (stereo not shown) [Example 33, {4-[4-(1-methylpiperidin-4-yloxy)-9,10-dihydro-4H-3,10a-diaza-benzo[f]azulen-2-yl]-phenyl}-acetonitrile oxalate]
< 30 | < 30 | CN1CCC(OC2c3ccccc3CCn3cc(-c4ccc(C(=O)OC(C)(C)C)cc4)nc32)CC1 (stereo not shown) [Example 36, 4-[4-(1-methylpiperidin-4-yloxy)-9,10-dihydro-4H-3,10a-diaza-benzo[f]azulen-2-yl]-benzoic acid tert-butyl ester]
 | < 300 | COC(=O)c1c(-c2ccccc2)nc2n1CCc1ccccc1C2OC1CCN(C)CC1 (stereo not shown) [Example 256, 4-(1-methylpiperidin-4-yloxy)-2-phenyl-9,10-dihydro-4H-3,10a-diaza-benzo[f]azulene-1-carboxylic acid methyl ester]
 | < 300 | C=C(C)Cc1nc2n(c1C(N)=O)CCc1ccccc1C2OC1CCN(C)CC1 (stereo not shown) [Example 266, 2-(2-methylallyl)-4-(1-methylpiperidin-4-yloxy)-9,10-dihydro-4H-3,10a-diaza-benzo[f]azulene-1-carboxylic acid amide]
 | < 300 | CN1CCC(OC2c3ccccc3CCn3c2nc(I)c3I)C1 (stereo not shown) [Example 268, 1,2-diiodo-4-(1-methylpyrrolidin-3-yloxy)-9,10-dihydro-4H-3,10a-diaza-benzo[f]azulene]
 | < 300 | CN1CCC(OC2c3ccccc3CCn3c2nc(-c2ccccc2Cl)c3C(N)=O)CC1 (stereo not shown) [Example 273, 2-(2-chlorophenyl)-4-(1-methylpiperidin-4-yloxy)-9,10-dihydro-4H-3,10a-diaza-benzo[f]azulene-1-carboxylic acid amide]
